The values that follow come from patent publication US10392428B2, “GLP-1 derivatives and uses thereof” (Novo Nordisk A/S, priority 2014, dated 2019).

The target in data set [1] is T1, human GLP-1 receptor (Homo sapiens, UniProt P43220).
T1 construct: expressed in transfected cells; host or cells: membrane preparation from BHK cells, clone FCW467-12A (parent line BHKTS13)
Put plainly: GLP-1 receptor binding: competitive binding assay (125I-GLP-1, SPA) on isolated membranes at low and high HSA.
Protocol: The purpose of this example is to test the receptor binding of the GLP-1 derivatives in vitro. The receptor binding is a measure of affinity of a derivative for the human GLP-1 receptor.
Each derivative is added in a series of concentrations to isolated membranes containing the human GLP-1 receptor and displacement of the labelled ligand is monitored. The receptor binding is reported as the concentration at which half of the labelled ligand is displaced from the receptor, the IC50 value.
Buffer 1 consisted of 20 mM Na-HEPES plus 10 mM EDTA and pH was adjusted to 7.4. Buffer 2 consisted of 20 mM Na-HEPES plus 0.1 mM EDTA and pH was adjusted to 7.4. Assay buffer consisted of 50 mM HEPES supplemented with 5 mM EGTA, 5 mM MgCl2, 0.005% Tween 20 and pH was adjusted to 7.4. An 8% albumin stock consisted of HSA dissolved at 8% (w/v) in assay buffer. An 0.02% albumin stock consisted of HSA dissolved at 0.02% (w/v) in assay buffer.
The cells express the human GLP-1 receptor.
The cells were grown at 5% CO2 in DMEM, 10% fetal calf serum, 1% Pen/Strep (Penicillin/Streptomycin) and 1.0 mg/ml of the selection marker G418.
To make a membrane preparation the cells were grown to approximately 80% confluence. The cells were washed twice in phosphate-buffered saline and harvested. The cells were pelleted using a brief centrifugation and the cell pellet was kept on ice. […] The homogenate was centrifuged for 15 minutes. The pellet was re-suspended (homogenised) in 10 ml buffer 2 and centrifuged. This step was repeated once more. The resulting pellet was re-suspended in buffer 2 and the protein concentration was determined. The membranes were aliquoted and stored at minus 80° C.
For the receptor binding assay in the presence of low HSA (0.005%) 50 μl of the assay buffer was added to each well of an assay plate.
For the receptor binding assay in the presence of high HSA (2%) 50 μl of the 8% albumin stock was added to each well of an assay plate.
Cell membrane aliquots were thawed and diluted to their working concentration. Fifty μl were added to each well in the assay plate.
WGA SPA beads were suspended in assay buffer at 20 mg/ml. The suspension was diluted to 10 mg/ml in assay buffer just prior to addition to the assay plate. Fifty μl were added to each well in the assay plate.
A 25 μl aliquot was reserved for measuring total counts/well.
The assay plate was incubated for 2 h at 30° C.
The assay plate was centrifuged for 10 min.
The assay plate was read in a Packard TopCount NXT instrument.
The data from the TopCount instrument were transferred to Graph Pad Prism software. Individual replicates were analysed using non-linear regression. IC50 values were calculated by the software and reported in nM. The reported values are averages of all of the measured values for each compound.

The nature of data set [2]: Pharmacokinetic study in minipigs (i.v.). The conditions noted are these: male, Göttingen, minipig, in vivo, iv; minipigs, i.v., 15 nmol/kg; harmonic mean; read-out: Terminal half-live (converted). As for the experimental part: The derivatives of Examples 12, 14, and 15 were dosed 2 nmol/kg. The derivatives of Examples 1 and 2 were dosed 15 nmol/kg.
In data set [3] the target is T1, human GLP-1 receptor. Briefly: In vitro potency: CRE luciferase reporter gene assay in BHK cells expressing the human GLP-1 receptor. The class given is cell-based. The conditions noted are these: whole cell reporter gene assay, 3 h incubation, average of at least two replicates. On the technique in general: Reporter assays use an easily measured gene product as a stand-in for the process of interest.
Protocol: The purpose of this example is to test the activity, or potency, of the GLP-1 derivatives in vitro. The in vitro potency is the measure of human GLP-1 receptor activation in a whole cell assay.
In vitro potency was determined by measuring the response of the human GLP-1 receptor in a reporter gene assay. The assay was performed in a stably transfected BHK cell line that expresses the human GLP-1 receptor and contains the DNA for the cAMP response element (CRE) coupled to a promoter and the gene for firefly luciferase (CRE luciferase). When the human GLP-1 receptor is activated it results in the production of cAMP, which in turn results in the luciferase protein being expressed. When assay incubation is completed the luciferase substrate (luciferin) is added and the enzyme converts luciferin to oxyluciferin to produce bioluminescence. The luminescence is measured as the readout for the assay.
The cells were cultured at 5% CO2 in cell culture medium. They were aliquoted and stored in liquid nitrogen. Before each assay an aliquot was taken up and washed twice in PBS before being suspended at the desired concentration in the assay specific buffer.
Assay medium consisted of DMEM w/o phenol red, 10 mM Hepes and 1χ Glutamax. The assay buffer consisted of 2% ovalbumin and 0.2% Pluronic F-68 in assay medium.
1) Cell stocks were thawed in a 37° C. water bath.
2) Cells were washed three times in PBS.
3) Cells were counted and adjusted to 5×10^3 cells/50 μl (1×10^5 cells/ml) in assay medium. A 50 μl aliquot of cells was transferred to each well in the assay plate.
4) Stocks of the test compounds and reference compounds were diluted to a concentration of 0.2 μM in assay buffer. […] 8) A 100 μl aliquot of steadylite plus reagent was added to each well of the assay plate. […] 10) Each assay plate was read in a BioTek Synergy 2 Multi-Mode Reader.
The data from the BioTek Synergy 2 Multi-Mode Reader were transferred to GraphPad Prism software. […]
A minimum of two replicates was measured for each sample. The reported EC50 values are averages of all of the measured values for each compound.

Where [4] appears, read: High HSA IC50 (nM), high HSA (2.0% final assay concentration).
[5] abbreviates: Low HSA IC50 (nM), low HSA (max. 0.001% final assay concentration).

Molecules are shown by their SMILES. pEC50: −log10 of the molar value. Non-standard residues stand in square brackets, D forms with d. Residues, ends and D or L forms follow the SMILES beside them. Groups on a side chain read outwards from the residue. *: point of attachment. X2 = O=C(O)CCCCCCCCCCCCCCCCCCC(=O)NC[C@H]1CC[C@H](C(=O)N[C@@H](CCC(=O)NCCCC[C@H](NC(=O)CC[C@H](NC(=O)[C@H]2CC[C@H](CNC(=O)CCCCCCCCCCCCCCCCCCC(=O)O)CC2)C(=O)O)C(=O)*)C(=O)O)CC1; Desaminohistidyl = O=C(CCc1c[nH]cn1)*; AEEA = NCCOCCOCC(=O)O; Aib = CC(C)(N)C(=O)O

By IC50 is commonly meant the point on the concentration scale where inhibition reaches its midpoint. Read a high IC50 as weaker potency. Usually pEC50 stands for the EC50 on a negative log10 scale, so that one unit is a factor of ten. A lower pEC50 goes with a large EC50.

T1 sequence (P43220 24-463): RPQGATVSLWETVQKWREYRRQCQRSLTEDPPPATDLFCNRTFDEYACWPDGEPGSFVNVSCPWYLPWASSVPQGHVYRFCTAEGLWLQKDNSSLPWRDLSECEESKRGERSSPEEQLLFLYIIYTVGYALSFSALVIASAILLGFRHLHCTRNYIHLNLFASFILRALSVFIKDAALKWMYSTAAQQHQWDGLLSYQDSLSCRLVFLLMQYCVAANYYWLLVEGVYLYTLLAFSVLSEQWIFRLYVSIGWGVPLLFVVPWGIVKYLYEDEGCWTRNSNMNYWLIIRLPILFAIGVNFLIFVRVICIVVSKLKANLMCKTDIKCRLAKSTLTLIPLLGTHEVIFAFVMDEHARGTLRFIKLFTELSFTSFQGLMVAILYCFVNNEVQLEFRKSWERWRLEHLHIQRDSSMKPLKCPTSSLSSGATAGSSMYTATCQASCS

As for `CC[C@H](C)[C@H](NC(=O)[C@H](Cc1ccccc1)NC(=O)[C@H](CCC(=O)O)NC(=O)[C@H](CCCNC(=N)N)NC(=O)[C@H](C)NC(=O)[C@H](C)NC(=O)[C@H](CCC(N)=O)NC(=O)[C@H](CCC(=O)O)NC(=O)[C@H](CCC(=O)O)NC(=O)[C@H](CC(C)C)NC(=O)[C@H](Cc1ccc(O)cc1)NC(=O)[C@H](CO)NC(=O)[C@H](CO)NC(=O)[C@@H](NC(=O)[C@H](CC(=O)O)NC(=O)[C@H](CO)NC(=O)[C@@H](NC(=O)[C@H](Cc1ccccc1)NC(=O)[C@@H](NC(=O)CNC(=O)[C@H](CCC(=O)O)NC(=O)C(C)(C)NC(=O)[C@@H](N)Cc1c[nH]cn1)[C@@H](C)O)[C@@H](C)O)C(C)C)C(=O)N[C@@H](C)C(=O)N[C@@H](Cc1c[nH]c2ccccc12)C(=O)N[C@@H](CC(C)C)C(=O)N[C@H](C(=O)N[C@@H](CCCNC(=N)N)C(=O)NCC(=O)N[C@@H](CCCNC(=N)N)C(=O)N[C@@H](CCCCNC(=O)COCCOCCNC(=O)[C@H](CCCCNC(=O)COCCOCCNC(=O)COCCOCCNC(=O)CC[C@H](NC(=O)[C@H]1CC[C@H](CNC(=O)CCCCCCCCCCCCCCCCCCC(=O)O)CC1)C(=O)O)NC(=O)COCCOCCNC(=O)COCCOCCNC(=O)CC[C@H](NC(=O)[C@H]1CC[C@H](CNC(=O)CCCCCCCCCCCCCCCCCCC(=O)O)CC1)C(=O)O)C(=O)O)C(C)C` [Example 1, N{Epsilon-37}-[2-[2-[2-[[(2S)-2,6-bis[[2-[2-[2-[[2-[2-[2-[[(4S)-4-carboxy-4-[[4-[(19-carboxynonadecanoylamino)methyl]cyclohexanecarbonyl]amino]butanoyl]amino]ethoxy]ethoxy]acetyl]amino]ethoxy]ethoxy]acetyl]amino]hexanoyl]amino]ethoxy]ethoxy]acetyl]-[Aib8,Glu22,Arg26,Arg34,Lys37]-GLP-1-(7-37)-peptide], the IC50 in data set [1] (setting [4]) is 140 nM. For the same compound, the half-life in data set [2] was 162 h.
For the compound `CC[C@H](C)[C@H](NC(=O)[C@H](Cc1ccccc1)NC(=O)[C@H](CCC(=O)O)NC(=O)[C@H](CCCNC(=N)N)NC(=O)[C@H](C)NC(=O)[C@H](C)NC(=O)[C@H](CCC(N)=O)NC(=O)[C@H](CCC(=O)O)NC(=O)[C@H](CCC(=O)O)NC(=O)[C@H](CC(C)C)NC(=O)[C@H](Cc1ccc(O)cc1)NC(=O)[C@H](CO)NC(=O)[C@H](CO)NC(=O)[C@@H](NC(=O)[C@H](CC(=O)O)NC(=O)[C@H](CO)NC(=O)[C@@H](NC(=O)[C@H](Cc1ccccc1)NC(=O)[C@@H](NC(=O)CNC(=O)[C@H](CCC(=O)O)NC(=O)C(C)(C)NC(=O)CCc1cnc[nH]1)[C@@H](C)O)[C@@H](C)O)C(C)C)C(=O)N[C@@H](C)C(=O)N[C@@H](Cc1c[nH]c2ccccc12)C(=O)N[C@@H](CC(C)C)C(=O)N[C@H](C(=O)N[C@@H](CCCNC(=N)N)C(=O)NCC(=O)N[C@@H](CCCNC(=N)N)C(=O)NCC(=O)NCC(=O)N[C@@H](CCCCNC(=O)COCCOCCNC(=O)COCCOCCNC(=O)COCCOCCNC(=O)COCCOCCNC(=O)[C@H](CCCCNC(=O)CC[C@H](NC(=O)[C@H]1CC[C@H](CNC(=O)CCCCCCCCCCCCCCCCCCC(=O)O)CC1)C(=O)O)NC(=O)CC[C@H](NC(=O)[C@H]1CC[C@H](CNC(=O)CCCCCCCCCCCCCCCCCCC(=O)O)CC1)C(=O)O)C(=O)O)C(C)C` [Example 6, [Imp7,Aib8,Glu22,Arg26,Arg34]-GLP-1-(7-37)-peptidyl-Gly-N{Epsilon}[2-[2-[2-[[2-[2-[2-[[2-[2-[2-[[2-[2-[2-[[(2S)-2,6-bis[[(4S)-4-carboxy-4-[[4-[(19-carboxynonadecanoylamino)methyl]cyclohexanecarbonyl]amino]butanoyl]amino]hexanoyl]amino]ethoxy]ethoxy]acetyl]amino]ethoxy]ethoxy]acetyl]amino]ethoxy]ethoxy]acetyl]amino]ethoxy]ethoxy]acetyl]Lys] (Desaminohistidyl-[Aib]EGTFTSDVSSYLEEQAAREFIAWLVRGRGGK([AEEA-AEEA-AEEA-AEEA-X2])-OH; C-terminus assumed), the 50% inhibitory concentration (IC50) in data set [1] (setting [4]) was determined as 140 nM. The pEC50 in data set [3] was 9.82.
`CC[C@H](C)[C@H](NC(=O)[C@H](Cc1ccccc1)NC(=O)[C@H](CCC(=O)O)NC(=O)[C@H](CCCNC(=N)N)NC(=O)[C@H](C)NC(=O)[C@H](C)NC(=O)[C@H](CCC(N)=O)NC(=O)[C@H](CCC(=O)O)NC(=O)[C@H](CCC(=O)O)NC(=O)[C@H](CC(C)C)NC(=O)[C@H](Cc1ccc(O)cc1)NC(=O)[C@H](CO)NC(=O)[C@H](CO)NC(=O)[C@@H](NC(=O)[C@H](CC(=O)O)NC(=O)[C@H](CO)NC(=O)[C@@H](NC(=O)[C@H](Cc1ccccc1)NC(=O)[C@@H](NC(=O)CNC(=O)[C@H](CCC(=O)O)NC(=O)C(C)(C)NC(=O)[C@@H](N)Cc1c[nH]cn1)[C@@H](C)O)[C@@H](C)O)C(C)C)C(=O)N[C@@H](C)C(=O)N[C@@H](Cc1c[nH]c2ccccc12)C(=O)N[C@@H](CC(C)C)C(=O)N[C@H](C(=O)N[C@@H](CCCNC(=N)N)C(=O)NCC(=O)N[C@@H](CCCNC(=N)N)C(=O)N[C@@H](CCCCNC(=O)COCCOCCNC(=O)COCCOCCNC(=O)[C@H](CCCCNC(=O)CC[C@H](NC(=O)[C@H]1CC[C@H](CNC(=O)CCCCCCCCCCCCCCCCCCC(=O)O)CC1)C(=O)O)NC(=O)CC[C@H](NC(=O)[C@H]1CC[C@H](CNC(=O)CCCCCCCCCCCCCCCCCCC(=O)O)CC1)C(=O)O)C(=O)O)C(C)C` [Example 11, N{Epsilon-37}-[2-[2-[2-[[2-[2-[2-[[(2S)-2,6-bis[[(4S)-4-carboxy-4-[[4-[(19-carboxynonadecanoylamino)methyl]cyclohexanecarbonyl]amino]butanoyl]amino]hexanoyl]amino]ethoxy]ethoxy]acetyl]amino]ethoxy]ethoxy]acetyl]-[Aib8,Glu22,Arg26,Arg34,Lys37]-GLP-1-(7-37)-peptide]: the IC50 was found to be 150 nM in data set [1] (setting [4]) and 1.5 nM in data set [1] (setting [5]). This compound showed a pEC50 in data set [3] of 9.89.
With `CC[C@H](C)[C@H](NC(=O)[C@H](Cc1ccccc1)NC(=O)[C@H](CCC(=O)O)NC(=O)[C@H](CCCNC(=N)N)NC(=O)[C@H](C)NC(=O)[C@H](C)NC(=O)[C@H](CCC(N)=O)NC(=O)[C@H](CCC(=O)O)NC(=O)[C@H](CCC(=O)O)NC(=O)[C@H](CC(C)C)NC(=O)[C@H](Cc1ccc(O)cc1)NC(=O)[C@H](CO)NC(=O)[C@H](CO)NC(=O)[C@@H](NC(=O)[C@H](CC(=O)O)NC(=O)[C@H](CO)NC(=O)[C@@H](NC(=O)[C@H](Cc1ccccc1)NC(=O)[C@@H](NC(=O)CNC(=O)[C@H](CCC(=O)O)NC(=O)C(C)(C)NC(=O)[C@@H](N)Cc1c[nH]cn1)[C@@H](C)O)[C@@H](C)O)C(C)C)C(=O)N[C@@H](C)C(=O)N[C@@H](Cc1c[nH]c2ccccc12)C(=O)N[C@@H](CC(C)C)C(=O)N[C@H](C(=O)N[C@@H](CCCNC(=N)N)C(=O)NCC(=O)N[C@@H](CCCNC(=N)N)C(=O)N[C@@H](CCCCNC(=O)COCCOCCNC(=O)COCCOCCNC(=O)COCCOCCNC(=O)COCCOCCNC(=O)[C@H](CCCCNC(=O)COCCOCCNC(=O)CC[C@H](NC(=O)[C@H]1CC[C@H](CNC(=O)CCCCCCCCCCCCCCCCCCC(=O)O)CC1)C(=O)O)NC(=O)COCCOCCNC(=O)CC[C@H](NC(=O)[C@H]1CC[C@H](CNC(=O)CCCCCCCCCCCCCCCCCCC(=O)O)CC1)C(=O)O)C(=O)O)C(C)C` [Example 21, N{Epsilon-37}-[2-[2-[2-[[2-[2-[2-[[2-[2-[2-[[2-[2-[2-[[(2S)-2,6-bis[[2-[2-[2-[[(4S)-4-carboxy-4-[[4-[(19-carboxynonadecanoylamino)methyl]cyclohexanecarbonyl]amino]butanoyl]amino]ethoxy]ethoxy]acetyl]amino]hexanoyl]amino]ethoxy]ethoxy]acetyl]amino]ethoxy]ethoxy]acetyl]amino]ethoxy]ethoxy]acetyl]amino]ethoxy]ethoxy]acetyl]-[Aib8,Glu22,Arg26,Arg34,Lys37]-GLP-1-(7-37)-peptide], the IC50 was 19 nM in data set [1] (setting [4]) and 1.5 nM in data set [1] (setting [5]).
